From US12642870B2, “Compositions and methods for delivery of nucleic acids” (Poseida Therapeutics, Inc., priority 2020, dated 2026) come the findings set out here.

The nature of series [1]: Agarose gel electrophoresis for nucleic acid incorporation. Type of series: physicochemical. Conditions: 1% agarose gel, SYBR Safe, naked mRNA control. As to the method: The LNP compositions were analyzed to verify the presence of mRNA. An aliquot of each of the LNP compositions was loaded on to a 1% agarose gel with a size standard and naked mRNA control, subject to electrophoresis and the presence of mRNA was detected by exposure of ultraviolet light to excite the fluorophore (SYBR Safe) which is complexed with nucleic acid. The free mRNA migrated in the gel in accordance with its molecular weight whereas all of the mRNA-containing LNP compositions remained at the interface of the agarose gel and the well with little to no detectable free mRNA indicating the LNP compositions comprising COMPOUND 1 of Example 1 were capable of incorporating mRNA.

The subject of series [2] is HEK293T cells. Nature of the series: In vitro LNP delivery of eGFP mRNA to adherent cells. Type of series: cell-based. Conditions: 0.125 μg eGFP mRNA per well, 24 hr, flow cytometry, LNP 41.44/45.85/10.0/2.7, lipid:RNA 40:1. On the procedure:
HEK293T cells were seeded in 96 well plates and grown to 70% confluence in DMEM+10% FBS] under a 5% CO2 atmosphere at 37° C. A 0.125 μg amount of 5′-CleanCap-eGFP mRNA (TriLink Biotech) formulated with LNP compositions comprising COMPOUNDS 1-4 as prepared in Example 3 at the following percentages in Table 10 was added to each well.
After incubating for 24 hr, cells were imaged for GFP expression with a Leica fluorescence microscope and then detached from 96 well plate to quantitate expression by flow cytometry.
On the technique in general: A flow cytometer gives signals particle by particle.

Series [3] can be described thus: Physical characterisation of DNA-containing LNPs (DLS, NTA, zeta potential). Type of series: physicochemical. As to conditions: nano-pB-EF1a-GFP DNA LNPs: compound/DOPE/Cholesterol/DMG-PEG2000 38.0/50.0/10.0/2.0, lipid:DNA 45:1 (w/w). As to the method: LNP compositions of the present disclosure comprising DNA, a nanoplasmid encoding a piggyBac transposon, wherein the piggyBac transposon comprised GFP under control of the EF1a promoter (herein referred to as the nano-pB-EF1a-GFP), and one of COMPOUNDS 1-8 were prepared as described in Example 3 by combining one of COMPOUNDS 1-8, the phospholipid DOPE, the structural lipid cholesterol (Chol) and 1,2-dimyristoyl-sn-glycerol methoxypolyethylene glycol (DMG-PEG2000) in the following percentages in Table 20: […]

Series [4] in a line: Physical characterisation of mRNA-containing LNPs (DLS, NTA, zeta potential). Format: physicochemical. Conditions: Fluc mRNA LNPs: compound/DOPE/Cholesterol/DMG-PEG2000 41.44/45.85/10/2.7, lipid:RNA 40:1 (w/w). On the procedure:
A series of ten multi-component LNP compositions of the present disclosure comprising exemplary compounds of Formula (I) was prepared by combining various percentages of an exemplary compound of Formula (I), the phospholipid DOPE, the structural lipid cholesterol (Chol) and 1,2-dimyristoyl-sn-glycerol methoxypolyethylene glycol (DMG-PEG2000; Avanti Polar Lipids, Alabaster, Alabama, USA).
Individual 25 mg/ml stock solutions were prepared by solubilizing the lipids in 200-proof HPLC-grade ethanol and stock solutions were stored at −80° C. until formulated. At the time of formulation, the lipid stock solutions were briefly allowed to equilibrate to room temp and then placed on a hot plate maintained at a temperature range of 50-55° C.
A 1 mg/mi solution of the desired mRNA to be incorporated into the LNPs was added to 150 mM sodium acetate buffer (pH 5.2) to form a stock solution and kept on ice. The lipid phase was mixed with the aqueous m RNA phase inside a microfluidic chip using a NanoAssemblr® instrument (Precision Nanosystems, Vancouver, BC, Canada) according to the manufacturer's instructions to form LNP compositions comprising encapsulated mRNAs.
The resultant mRNA LNP compositions were then transferred to a Repligen Float-A-Lyzer dialysis device—having a molecular weight cut off (MWCO) of 8-10 kDa (Spectrum Chemical Mfg. Corp, CA, USA) and processed by dialysis against phosphate buffered saline (PBS) (dialysate:dialysis buffer volume at least 1:200 v/v), pH 7.4 overnight at 4° C. (or alternatively room temperature for at least 4 hours), to remove the 25% ethanol and achieve a complete buffer exchange. In some experiments the LNPs were further concentrated by in an Amicon® Ultra-4 centrifugal filter unit, MWCO-30 kDa (Millipore Sigma, USA) spun at ˜4100×g in an ultracentrifuge. The mRNA LNPs were then stored at 4° C. until further use.
A series of multicomponent LNP compositions comprising one of COMPOUNDS 1-8 described in Example 1 and the mRNA encoding flue was prepared according to Example 2 and the physical characteristics of the resulting LNPs were analyzed.
In a separate experiment, LNP compositions of the present disclosure comprising mRNA encoding firefly luciferase (hereafter “Fluc”; TriLink) and COMPOUNDS 1-8 were prepared as described in Example 2 by combining one of COMPOUNDS 1-8, the phospholipid DOPE, the structural lipid cholesterol (Chol) and 1,2-dimyristoyl-sn-glycerol methoxypolyethylene glycol (DMG-PEG2000) in the percentages presented in Table 8: […]

Series [5] concerns HEK293T cells. Put plainly: In vitro lipoplex nanoparticle delivery of eGFP mRNA to adherent cells. Format: cell-based. As to the method:
HEK293T cells were seeded in 96 well plates and grown to 70% confluence in [DMEM+10% FBS under a 5% CO2 atmosphere at 37° C. Lipoplex nanoparticles comprising COMPOUND 1 and 0.007, 0.03, 0.125, and 0.50 μg mRNA encoding eGFP were added to the cells. Following incubation with the lipoplex nanoparticles, cells were assessed for GFP expression by epifluorescence microscopy and flow cytometry.

In series [6] the test system is Resting T-cells. Put plainly: LNP delivery of eGFP mRNA to resting T-cells. Type of series: cell-based. As to conditions: eGFP mRNA LNPs 0.4144:0.4585:0.1:0.027, lipid:nucleic acid 40:1, 0.5 ug mRNA per well, 24 hrs. On the procedure: In one experiment, LNPs of the present disclosure comprising one of COMPOUNDS 1-4, DOPE, Cholesterol and DMG-PEG2000 at a molar ratio of 0.4144:0.4585:0.1:0.027 and further comprising Cleancap mRNA encoding eGFP were formed on a NanoAssemblr® (Precision Nanosystems). […] Resting T-cells were treated with varying amounts of the four LNP composition and at 24 hrs, the cells were analyzed to determine the percentage of cells that were viable and that expressed […]. The results of the analysis are shown in Table 12 for a dose of 0.5 ug mRNA per well.

Series [7] is described as follows: Average diameter of lipoplex nanoparticles comprising eGFP mRNA (DLS or NTA). Type of series: physicochemical. Conditions: lipoplex nanoparticles comprising eGFP mRNA and COMPOUND 1, both methods. On the procedure: Lipoplex nanoparticles were formulated using solvent injection method. In brief, a multivalent cationic bolaform amphiphilic lipid (4.0 mg) was dissolved in dimethyl sulfoxide (1 mL) to obtain 4 mg/mL solution. The solution was heated for 15 min at 40° C. to dissolve the lipid. DNA or mRNA (0.040 mg) was diluted with 50 mM Sodium acetate buffer (2 mL, pH 5.5) to obtained 0.02 mg/mL solution. Bolamphiphile lipid solution (0.4 mg, 100 p1) was injected in DNA or mRNA solution (0.04 mg, 2 mL) under constant sonication. The mass ratio of […] was kept constant to 10 for all the bolamphiphile formulation. The sonication was continued for 5 min. The solution was dialyzed (MWCO 30 kDa) for 4-6 hours in PBS (1×, pH 7.4) at room temperature. Sample was concentrated using Amicon centrifuge tube (30 kDa) to get the desired concentration for subsequent in vivo or in vitro use.
Lipoplex nanoparticles were prepared comprising mRNA encoding eGFP using COMPOUND 1 according to the method above and the average diameter of the resulting nanoparticles was determined by DLS or NTA. Both methods yielded average diameters of about 120 nm and the presence of RNA in the nanoparticle was confirmed by gel electrophoresis as described in Example 3.

Series [8] has as its system Resting T-cells. Put plainly: LNP delivery of nano-pB-EF1a-GFP DNA to resting T-cells. Type of series: cell-based. As to conditions: nano-pB-EF1a-GFP DNA LNPs 0.38:0.5:0.1:0.02, lipid:nucleic acid 45:1, 24 hr. An excerpt: The experiments described in this example used CD4/CD8 positive T-cells isolated from a leukapheresis product from a healthy donor.

Consider `CC(C)C(CCC(C)C(CCC1CCC(C(=O)NCCCCCCNC(=O)C2CCC(CCC(SCCN(C)C)C(C)CCC(SCCN(C)C)C(C)C)C(SCCN(C)C)C2)CC1SCCN(C)C)SCCN(C)C)SCCN(C)C` (stereo not shown) [Compound 1], for which the “incorporation of mRNA into the nanoparticle compositions by gel electrophoresis” value in series [1] is given as “confirmed”. Further, the “% Viable GFP+” value was 23.5% with HEK293T cells [2], 9.5% with Resting T-cells [6] and 35.2% in the series on Resting T-cells [8]. The “Diameter (DLS; nm)” value in series [3] is 123.5 nm; in series [4], 155.1 nm. For the same compound, the results for the “Diameter (NTA; nm)” value in series [3] and in series [4] were 96.9 nm and 126.5 nm, respectively. Moreover, the results for the PDI in series [3] and in series [4] were 0.17 and 0.174, respectively. The “Total Particles/ml” value is 5.76E+11 Particles/ml in series [3] and 1.66E+11 Particles/ml in series [4]. Moreover, the “Zeta Potential (mV)” value worked out at 0.67 mV in series [3] and 1.41 mV in series [4]. Moreover, the “% GFP” value came to 0.99% with HEK293T cells [5] (lipoplex nanoparticles comprising COMPOUND 1, 0.007 μg mRNA); 7.37% with HEK293T cells [5] (lipoplex nanoparticles comprising COMPOUND 1, 0.03 μg mRNA); 30.1% in the series with HEK293T cells [5] (lipoplex nanoparticles comprising COMPOUND 1, 0.125 μg mRNA); 56.1% in the series with HEK293T cells [5] (lipoplex nanoparticles comprising COMPOUND 1, 0.50 μg mRNA). Further, the “average diameter of lipoplex nanoparticles” value in series [7] is “about 120 nm”.
